The values that follow come from patent US20230321123A1, “INHIBITORS OF PSEUDOMONAS AERUGINOSA VIRULENCE FACTOR LasB” (Helmholtz-Zentrum Für Infektionsforschung GmbH, priority 2020, published 2023).

Structures are written as SMILES. Read-outs that look alike come from different tables or passages of the source.

The target in one series is LasB (Pseudomonas aeruginosa, UniProt Q02RJ6). Put plainly: biochemical. Further details: species or system P. aeruginosa.
Another series deals with T1, MMP-1 (Homo sapiens, UniProt P03956).
T1 sequence (P03956 100-469): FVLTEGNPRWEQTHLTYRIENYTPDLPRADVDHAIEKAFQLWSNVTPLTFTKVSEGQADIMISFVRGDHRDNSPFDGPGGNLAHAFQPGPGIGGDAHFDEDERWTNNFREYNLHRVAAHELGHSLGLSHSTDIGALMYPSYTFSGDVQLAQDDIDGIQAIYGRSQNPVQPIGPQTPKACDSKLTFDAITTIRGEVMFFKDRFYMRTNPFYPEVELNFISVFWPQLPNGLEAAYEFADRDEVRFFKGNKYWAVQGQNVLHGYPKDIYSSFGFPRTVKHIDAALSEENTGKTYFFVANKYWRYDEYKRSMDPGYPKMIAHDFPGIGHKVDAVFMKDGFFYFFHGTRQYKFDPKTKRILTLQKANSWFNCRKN
Put plainly: Selectivity against human off-targets: MMP-1. The class given is biochemical. To be noted: at 100 μM; read-out: Inhibition [%] MMP-1. The text has this: (§1) The inhibition of zinc-containing human enzymes is described frequently for LasB inhibitors and poses a serious difficulty in the development of selective compounds. Particularly, the inhibition of matrix metalloproteases (MMPs) should be avoided. To further investigate this issue, three derivatives (the compounds of examples 1, 5 and 8) have been tested for their selectivity against several human off-targets, including six MMPs, ADAM17 (TACE), HDAC-3 and HDAC-8 (Table 4). The selectivity of the compounds is particularly high for MMPs and HDACs, whereas the inhibition of ADAM17 was considerably stronger.

The target in a further series is T2, MMP-2 (Homo sapiens, UniProt P08253).
T2 sequence (P08253 110-660): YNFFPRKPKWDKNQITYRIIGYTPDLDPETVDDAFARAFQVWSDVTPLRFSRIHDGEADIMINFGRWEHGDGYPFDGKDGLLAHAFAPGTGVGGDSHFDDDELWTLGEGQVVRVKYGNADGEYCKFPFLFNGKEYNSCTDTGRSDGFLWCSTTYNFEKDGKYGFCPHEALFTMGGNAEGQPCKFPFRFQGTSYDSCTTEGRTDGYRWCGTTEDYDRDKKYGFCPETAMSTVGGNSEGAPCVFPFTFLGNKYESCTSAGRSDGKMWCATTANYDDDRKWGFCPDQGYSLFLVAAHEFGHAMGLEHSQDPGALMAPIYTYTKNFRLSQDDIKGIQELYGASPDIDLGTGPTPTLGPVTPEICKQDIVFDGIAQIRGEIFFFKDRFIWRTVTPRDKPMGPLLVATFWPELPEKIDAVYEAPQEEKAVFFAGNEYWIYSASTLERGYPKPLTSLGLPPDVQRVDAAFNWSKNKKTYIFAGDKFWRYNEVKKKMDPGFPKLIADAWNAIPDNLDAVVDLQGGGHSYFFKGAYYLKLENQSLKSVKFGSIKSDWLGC
Kind of series: Selectivity against human off-targets: MMP-2. The class given is biochemical. The note with it: at 100 μM; read-out: Inhibition [%] MMP-2.
Source text: as §1

For another series, the target named is MMP-3 (Homo sapiens, UniProt P08254). Put plainly: Selectivity against human off-targets: MMP-3. The class given is biochemical. The note with it: at 100 μM; read-out: Inhibition [%] MMP-3.
Source text: as §1

Another series has as its target ADAM17 (TACE) (Homo sapiens, UniProt P78536). Put plainly: Selectivity against human off-targets: ADAM17 (TACE). The class given is biochemical. The note with it: for IC50: read-out: IC50 ADAM17 (TACE).
Another series in a line: Cytotoxicity HepG2. Format: cell-based. To be noted: human. As for the experimental part: (§2) The compounds of examples 1 and 5 were not toxic against the cell lines HepG2, HEK293 and A549 (Table 5). Additionally, the inhibitory effect against P. aeruginosa PA14 was evaluated to exclude an antibacterial effect of the compounds of the present invention. This is important as it was the aim to target virulence and not viability of the bacteria. […]

Another series is described as follows: Cytotoxicity HEK293. The class given is cell-based. To be noted: human. As for the experimental part:
as §2

Another series is described as follows: Cytotoxicity A549. The class given is cell-based. To be noted: human. As for the experimental part: as §2
A further series concerns P. aeruginosa PA14. Put plainly: PA14 inhibition (MIC, antibacterial effect). To be noted: Pseudomonas aeruginosa, PA14; read-out: MIC PA14. Format: cell-based. As for the experimental part:
as §2

LasB, sequence (Q02RJ6 198-498): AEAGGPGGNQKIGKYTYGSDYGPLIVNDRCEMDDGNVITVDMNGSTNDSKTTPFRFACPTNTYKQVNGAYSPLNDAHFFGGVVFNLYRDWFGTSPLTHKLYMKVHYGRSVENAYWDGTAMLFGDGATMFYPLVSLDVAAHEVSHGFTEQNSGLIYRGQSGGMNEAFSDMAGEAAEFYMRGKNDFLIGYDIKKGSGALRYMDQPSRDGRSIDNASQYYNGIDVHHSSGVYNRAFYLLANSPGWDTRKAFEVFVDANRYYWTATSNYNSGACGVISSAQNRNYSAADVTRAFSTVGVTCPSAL
MMP-3, sequence (P08254 100-477): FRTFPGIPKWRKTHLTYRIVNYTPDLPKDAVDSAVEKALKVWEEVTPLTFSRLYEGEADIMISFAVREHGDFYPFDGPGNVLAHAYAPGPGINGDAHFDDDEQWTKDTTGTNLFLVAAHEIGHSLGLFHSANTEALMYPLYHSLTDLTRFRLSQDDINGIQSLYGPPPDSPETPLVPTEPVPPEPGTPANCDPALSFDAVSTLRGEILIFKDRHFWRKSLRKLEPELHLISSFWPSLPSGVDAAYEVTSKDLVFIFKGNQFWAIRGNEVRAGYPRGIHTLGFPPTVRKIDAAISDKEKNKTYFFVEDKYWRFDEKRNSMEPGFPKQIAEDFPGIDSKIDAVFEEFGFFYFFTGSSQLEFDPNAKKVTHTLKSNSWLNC
ADAM17 (TACE), sequence (P78536 215-824): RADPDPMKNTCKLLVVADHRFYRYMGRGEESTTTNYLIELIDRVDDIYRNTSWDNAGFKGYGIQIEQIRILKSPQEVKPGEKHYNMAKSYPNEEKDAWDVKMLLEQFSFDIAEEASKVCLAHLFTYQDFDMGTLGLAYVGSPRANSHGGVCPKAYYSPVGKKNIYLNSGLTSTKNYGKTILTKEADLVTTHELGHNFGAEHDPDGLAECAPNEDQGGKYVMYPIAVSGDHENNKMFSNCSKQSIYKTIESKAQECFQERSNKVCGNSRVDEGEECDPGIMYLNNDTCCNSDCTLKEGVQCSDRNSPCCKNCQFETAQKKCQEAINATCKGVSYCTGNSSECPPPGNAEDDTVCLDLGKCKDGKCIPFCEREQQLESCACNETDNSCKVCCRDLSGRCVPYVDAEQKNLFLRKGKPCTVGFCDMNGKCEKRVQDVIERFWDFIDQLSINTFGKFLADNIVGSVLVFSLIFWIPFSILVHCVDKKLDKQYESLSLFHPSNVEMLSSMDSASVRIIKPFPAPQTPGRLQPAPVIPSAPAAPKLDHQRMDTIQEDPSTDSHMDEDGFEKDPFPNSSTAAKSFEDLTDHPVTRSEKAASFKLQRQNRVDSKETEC

On to `CC(C)CC(C(=O)N[C@H](C(=O)Nc1ccc(Cl)c(Cl)c1)C(C)C)P(=O)(O)O` (mixture of isomers) [Example 152, (1-(((S)-1-((3,4-Dichlorophenyl)amino)-3-methyl-1-oxobutan-2-yl)amino)-4-methyl-1-oxopentan-2-yl)phosphonic acid], for which the IC50 – broadly, the concentration that gives 50% inhibition – against LasB (IC50 against LasB) was 0.0051 ± 0.0002 µM; on ADAM17 (TACE), over 100 µM; in “Cytotoxicity HepG2” (HepG2), over 100 µM; in the series “Cytotoxicity HEK293” (HEK293) it was over 100 µM; in the series “Cytotoxicity A549” (A549) it was over 100 µM. For the same compound, the figures for the inhibition at 100 µM at MMP-1, at MMP-2 and at MMP-3 were 13 ± 1%, 7 ± 9% and under 10%, respectively. Also, the MIC (as a rule, the smallest concentration in the dilution series that meets the test's criterion for growth inhibition) in the series with P. aeruginosa PA14 was over 100 µM.
Take `CC(C)CC(C(=O)N[C@H](c1nc2cc(Oc3ccccc3)ccc2[nH]1)C(C)C)P(=O)(O)O` (mixture of isomers) [Example 172, (4-Methyl-1-(((S)-2-methyl-1-(5-phenoxy-1H-benzo[d]imidazol-2-yl)propyl)amino)-1-oxopentan-2-yl)phosphonic acid]: the IC50 against LasB (IC50 against LasB (Table 16), heteropentacycles and benzannulated heteropentacycles) is 12 ± 1 µM; in “Cytotoxicity HepG2” (HepG2) it was over 100 µM; in the series “Cytotoxicity HEK293” (HEK293) it was over 100 µM; in “Cytotoxicity A549” (A549), over 100 µM. Also, the inhibition (in general, the relative decrease from the control value, in per cent) at 100 µM at MMP-1 is 18 ± 4%; on MMP-2, 12 ± 2%; on MMP-3, 18 ± 5%; at ADAM17 (TACE) (at 100 μM), under 10%. The MIC in the series with P. aeruginosa PA14 is over 100 µM.
`Cc1ccc(NC(=O)C(S)Cc2ccccc2)cc1` (centres unmarked) [Example 8]: the figures for the IC50 on LasB (read-out: IC50 against LasB) and at ADAM17 (TACE) were 0.48 ± 0.04 µM and 4.8 ± 1.2 µM, respectively.
`CC(C)CC(C(=O)Nc1ccc(-c2ccc(Cl)cc2)nc1)P(=O)(O)O` (centres unmarked) [Example 92]: the inhibition at 100 µM is under 10% on MMP-1, 18% at MMP-2 and under 10% at MMP-3. Further, the IC50 in “Cytotoxicity HepG2” (HepG2 cells), in the series “Cytotoxicity HEK293” (HEK293 cells) and in the series “Cytotoxicity A549” (A549 cells) was over 100 µM in each case. The MIC with P. aeruginosa PA14 was over 100 µM.
`CC(C)CC(C(=O)Nc1ccc(NS(=O)(=O)c2ccc(Cl)c(Cl)c2)cc1)P(=O)(O)O` (centres unmarked) [Example 108, (1-((4-((3,4-Dichlorophenyl)sulfonamido)phenyl)amino)-4-methyl-1-oxopentan-2-yl)phosphonic acid]: the inhibition at 100 µM is 12 ± 1% at MMP-1, under 10% on MMP-2 and under 10% on MMP-3. Besides, the IC50 in the series “Cytotoxicity HepG2” (HepG2 cells), in “Cytotoxicity HEK293” (HEK293 cells) and in “Cytotoxicity A549” (A549 cells) was over 100 µM throughout. The MIC in the series with P. aeruginosa PA14 was over 100 µM.
Compound `CC(C)CC(C(=O)N[C@@H]1CCCN(Cc2ccc(Cl)cc2)C1)P(=O)(O)O` (some centres unmarked) [Example 148] had an IC50 against LasB (IC50 against LasB) of 8.36 ± 0.26 µM.
Consider `CC(C)C(CC(=O)N1CCN(Cc2ccc(-c3ccc(Cl)cc3)cc2)CC1)P(=O)(O)O` (centres unmarked) [Example 149], for which, on LasB (IC50 against LasB), the IC50 is 7.28 ± 0.96 µM.
The same measure, in the same setting: the figure for `CC(C)CC(C(=O)N1CCN(Cc2ccc(-c3ccc(Cl)cc3)cc2)CC1)P(=O)(O)O` (centres unmarked) [Example 150] is 8.66 ± 1.11 µM; for `CC(C)CC(C(=O)NC12CC(C(=O)Nc3ccc(Cl)c(Cl)c3)(C1)C2)P(=O)(O)O` (centres unmarked) [Example 151, (1-((3-((3,4-Dichlorophenyl)carbamoyl)bicyclo[1.1.1]pentan-1-yl)amino)-4-methyl-1-oxopentan-2-yl)phosphonic acid] it is 0.347 ± 0.012 µM.
As for `CC(C)CC(C(=O)N[C@@H](C)C(=O)Nc1ccc(Cl)c(Cl)c1)P(=O)(O)O` (some centres unmarked) [Example 153], the IC50 on LasB (IC50 against LasB) was 0.062 ± 0.002 µM.
In the case of `CC[C@H](C)[C@H](NC(=O)C(CC(C)C)P(=O)(O)O)C(=O)Nc1ccc(Cl)c(Cl)c1` (some centres unmarked) [Example 154], the IC50 on LasB (IC50 against LasB) was found to be 0.013 ± 0.001 µM.
Same read-out and setting: the figure for `CC(C)CC(C(=O)N[C@@H](CC(C)C)C(=O)Nc1ccc(Cl)c(Cl)c1)P(=O)(O)O` (some centres unmarked) [Example 155] is 0.06 ± 0.002 µM; for `CC(C)CC(C(=O)N[C@H](C(=O)Nc1ccc(Cl)c(Cl)c1)C1CCCCC1)P(=O)(O)O` (some centres unmarked) [Example 156] it is 0.012 µM.
At LasB (IC50 against LasB), `CC(C)CC(C(=O)N[C@@H](Cc1ccccc1)C(=O)Nc1ccc(Cl)c(Cl)c1)P(=O)(O)O` (some centres unmarked) [Example 157] gave an IC50 of 0.427 ± 0.048 µM.
In the case of `CC(C)CC(C(=O)N[C@@H](CC1CCCCC1)C(=O)Nc1ccc(Cl)c(Cl)c1)P(=O)(O)O` (some centres unmarked) [Example 158], at LasB (IC50 against LasB), the IC50 came to 0.242 ± 0.021 µM.
On to `CC(C)C[C@@H](C(=O)N[C@@H](Cc1cccnc1)C(=O)Nc1ccc(Cl)c(Cl)c1)P(=O)(O)O` [Example 159], for which the IC50 against LasB (IC50 against LasB) came to 1.5 ± 0.06 µM.
At LasB (IC50 against LasB), `CC(C)C[C@H](C(=O)N[C@@H](Cc1cccnc1)C(=O)Nc1ccc(Cl)c(Cl)c1)P(=O)(O)O` [Example 160] came in with an IC50 of 0.573 ± 0.016 µM.
On the same count and under the same terms, in the case of `CC(C)C[C@@H](C(=O)N[C@@H](Cc1ccccn1)C(=O)Nc1ccc(Cl)c(Cl)c1)P(=O)(O)O` [Example 161] it was 1.36 ± 0.05 µM.
`CC(C)C[C@H](C(=O)N[C@@H](Cc1ccccn1)C(=O)Nc1ccc(Cl)c(Cl)c1)P(=O)(O)O` [Example 162] had an IC50 against LasB (IC50 against LasB) of 0.416 ± 0.023 µM.
At LasB (IC50 against LasB), `CC(C)CC(C(=O)NCC(=O)Nc1ccc(Cl)c(Cl)c1)P(=O)(O)O` (centres unmarked) [Example 163] came in with an IC50 of 1.756 ± 0.003 µM.
Same read-out and setting: the figure for `CC(C)CC(C(=O)N[C@@H](CC1CC1)C(=O)Nc1ccc(Cl)c(Cl)c1)P(=O)(O)O` (some centres unmarked) [Example 164] is 0.027 ± 0.001 µM; for `CC(C)CC(C(=O)N[C@H](C(=O)Nc1ccc(Cl)c(Cl)c1)c1ccccc1)P(=O)(O)O` (some centres unmarked) [Example 165] it is 0.1 ± 0.003 µM.
On the same count and under the same terms, the figure for `CC(C)CC(C(=O)N1CCC[C@H]1C(=O)Nc1ccc(Cl)c(Cl)c1)P(=O)(O)O` (some centres unmarked) [Example 166] is 2.54 ± 0.069 µM; for `CC(C)CC(C(=O)N[C@@H](C(=O)Nc1ccc(Cl)c(Cl)c1)C(C)C)P(=O)(O)O` (some centres unmarked) [Example 167] it is 0.011 µM; for `CC(C)CC(C(=O)N[C@H](CC(=O)Nc1ccc(Cl)c(Cl)c1)C(C)C)P(=O)(O)O` (some centres unmarked) [Example 168] it is 1.76 ± 0.03 µM.
On LasB (IC50 against LasB), `CC(C)CC(C(=O)N[C@@H](CC1CCOCC1)C(=O)Nc1ccc(Cl)c(Cl)c1)P(=O)(O)O` (some centres unmarked) [Example 169] came in with an IC50 of 0.378 ± 0.008 µM.
On LasB (IC50 against LasB), `CC(C)CC(C(=O)Nc1ccc(Cl)c(Cl)c1)n1ccnn1` (centres unmarked) [Example 175] showed an IC50 of 4.3 ± 0.2 µM.
Take `CC(C)CC(C(=O)Nc1ccc(OCc2ccc(Cl)c(Cl)c2)cc1)n1ccnn1` (centres unmarked) [Example 176]: the IC50 at LasB (IC50 against LasB) was 45.6 µM.
On LasB (IC50 against LasB), `CC(C)CC(C(=O)Nc1ccc(Cl)c(Cl)c1)n1nccn1` (centres unmarked) [Example 178] returned an IC50 of 5.5 ± 0.2 µM.
For the compound `CC(C)CC(C(=O)Nc1ccc(OCc2ccc(Cl)c(Cl)c2)cc1)n1nccn1` (centres unmarked) [Example 179], the IC50 on LasB (IC50 against LasB) was found to be 30 µM.
